Values after ≈ are worked out from the molar mass of the structure shown. Active and inactive are the calls of the source. The calls are words filed in the database; no cut-off is given here.
How the values were obtained:
Aspergillus flavus [1] = assay: Antimicrobial activity against Aspergillus flavus ATCC 16870 incubated for 24 hrs by two fold serial dilution method; type: functional
Candida albicans [2] = assay: Antimicrobial activity against Candida albicans ATCC 76615 assessed as inhibition of cell wall synthesis in presence of sorbitol; type: functional
Candida albicans [3] = assay: Antimicrobial activity against Candida albicans ATCC 76615 incubated for 24 hrs in presence of fluconazole by checkerboard method; type: functional
Aspergillus fumigatus [4] = assay: Antimicrobial activity against Aspergillus fumigatus GIMCC 3.19 incubated for 24 hrs in presence of fluconazole by checkerboard method; type: functional
Aspergillus flavus [5] = assay: Antimicrobial activity against Fluconazole-resistant Aspergillus flavus ATCC 16870R incubated for 24 hrs by two fold serial dilution method; type: functional
Aspergillus flavus [6] = assay: Antimicrobial activity against Aspergillus flavus ATCC 16870 incubated for 24 hrs in presence of fluconazole by checkerboard method; type: functional
Candida albicans [7] = assay: Additive antimicrobial activity against Candida albicans ATCC 76615 assessed as fractional inhibitory concentration index incubated for 24 hrs in presence of polyoxin B by checkerboard method; type: functional
Aspergillus fumigatus [8] = assay: Synergistic antimicrobial activity against Aspergillus fumigatus GIMCC 3.19 assessed as fractional inhibitory concentration index incubated for 24 hrs in presence of polyoxin B by checkerboard method; type: functional
Candida albicans [9] = assay: Antimicrobial activity against Candida albicans ATCC 76615 incubated for 24 hrs in presence of polyoxin B by checkerboard method; type: functional
[10] = Inhibition of Candida tropicalis ATCC 750 chitin synthase using UDP-GlcNAc as substrate by TMB based microplate analyzer
Candida albicans [11] = assay: Antimicrobial activity against fluconazole-resistant Candida albicans ATCC 76615R incubated for 24 hrs by two fold serial dilution method; type: functional
Cryptococcus neoformans [12] = assay: Antimicrobial activity against Cryptococcus neoformans ATCC 32719 assessed as inhibition of cell wall synthesis in presence of sorbitol; type: functional
Aspergillus fumigatus [13] = assay: Antimicrobial activity against Aspergillus fumigatus GIMCC 3.19 incubated for 24 hrs by two fold serial dilution method; type: functional
Aspergillus fumigatus [14] = assay: Antimicrobial activity against Fluconazole-resistant Aspergillus fumigatus GIMCC 3.19R incubated for 24 hrs by two fold serial dilution method; type: functional
Aspergillus fumigatus [15] = assay: Antimicrobial activity against Aspergillus fumigatus GIMCC 3.19 assessed as inhibition of cell wall synthesis in presence of sorbitol; type: functional
Candida albicans [16] = assay: Additive antimicrobial activity against Candida albicans ATCC 76615 assessed as fractional inhibitory concentration index incubated for 24 hrs in presence of fluconazole by checkerboard method; type: functional
Cryptococcus neoformans [17] = assay: Antimicrobial activity against Cryptococcus neoformans ATCC 32719 incubated for 24 hrs by two fold serial dilution method; type: functional
Aspergillus fumigatus [18] = assay: Synergistic antimicrobial activity against Aspergillus fumigatus GIMCC 3.19 assessed as fractional inhibitory concentration index incubated for 24 hrs in presence of fluconazole by checkerboard method; type: functional
Cryptococcus neoformans [19] = assay: Synergistic antimicrobial activity against Cryptococcus neoformans ATCC 32719 assessed as fractional inhibitory concentration index incubated for 24 hrs in presence of polyoxin B by checkerboard method; type: functional
Candida albicans [20] = assay: Antimicrobial activity against Candida albicans ATCC 76615 incubated for 24 hrs by two fold serial dilution method; type: functional
Aspergillus flavus [21] = assay: Antimicrobial activity against Aspergillus flavus ATCC 16870 assessed as inhibition of cell wall synthesis in presence of sorbitol; type: functional
Cryptococcus neoformans [22] = assay: Antimicrobial activity against Fluconazole-resistant Cryptococcus neoformans ATCC 32719R incubated for 24 hrs by two fold serial dilution method; type: functional
Aspergillus flavus [23] = assay: Synergistic antimicrobial activity against Aspergillus flavus ATCC 16870 assessed as fractional inhibitory concentration index incubated for 24 hrs in presence of polyoxin B by checkerboard method; type: functional
Cryptococcus neoformans [24] = assay: Synergistic antimicrobial activity against Cryptococcus neoformans ATCC 32719 assessed as fractional inhibitory concentration index incubated for 24 hrs in presence of fluconazole by checkerboard method; type: functional
Candida albicans [25] = assay: Antimicrobial activity against micafungin-resistant Candida albicans ATCC 76615R incubated for 24 hrs by two fold serial dilution method; type: functional
Cryptococcus neoformans [26] = assay: Antimicrobial activity against Cryptococcus neoformans ATCC 32719 incubated for 24 hrs in presence of polyoxin B by checkerboard method; type: functional
Candida tropicalis [27] = assay: Inhibition of Candida tropicalis ATCC 750 chitin synthase using UDP-GlcNAc as substrate at 300 ug/ml by TMB based microplate analyzer relative to control; conditions: dose 300.0 µg/ml
Aspergillus flavus [28] = assay: Antimicrobial activity against Aspergillus flavus ATCC 16870 incubated for 24 hrs in presence of polyoxin B by checkerboard method; type: functional
Aspergillus fumigatus [29] = assay: Antimicrobial activity against Aspergillus fumigatus GIMCC 3.19 incubated for 24 hrs in presence of polyoxin B by checkerboard method; type: functional
Aspergillus flavus [30] = assay: Synergistic antimicrobial activity against Aspergillus flavus ATCC 16870 assessed as fractional inhibitory concentration index incubated for 24 hrs in presence of fluconazole by checkerboard method; type: functional
Cryptococcus neoformans [31] = assay: Antimicrobial activity against Cryptococcus neoformans ATCC 32719 incubated for 24 hrs in presence of fluconazole by checkerboard method; type: functional
Aspergillus fumigatus [32] = assay: Additive antimicrobial activity against Aspergillus fumigatus GIMCC 3.19 assessed as fractional inhibitory concentration index incubated for 24 hrs in presence of polyoxin B by checkerboard method; type: functional
Candida albicans [33] = assay: Synergistic antimicrobial activity against Candida albicans ATCC 76615 assessed as fractional inhibitory concentration index incubated for 24 hrs in presence of polyoxin B by checkerboard method; type: functional
Candida albicans [34] = assay: Synergistic antimicrobial activity against Candida albicans ATCC 76615 assessed as fractional inhibitory concentration index incubated for 24 hrs in presence of fluconazole by checkerboard method; type: functional
Aspergillus flavus [35] = assay: Additive antimicrobial activity against Aspergillus flavus ATCC 16870 assessed as fractional inhibitory concentration index incubated for 24 hrs in presence of polyoxin B by checkerboard method; type: functional
Aspergillus fumigatus [36] = assay: Additive antimicrobial activity against Aspergillus fumigatus GIMCC 3.19 assessed as fractional inhibitory concentration index incubated for 24 hrs in presence of fluconazole by checkerboard method; type: functional
Candida tropicalis [37] = assay: Non-competitive inhibition of Candida tropicalis ATCC 750 chitin synthase using UDP-GlcNAc as substrate assessed as decrease in Vmax with constant Km by Lineweaver-Burk plot analysis
[38] = Binding affinity to Candida tropicalis ATCC 750 chitin synthase assessed as inhibition constant by Lineweaver-Burk plot analysis

Row | Structure (SMILES) | MIC (Aspergillus flavus [1]) [µg/mL] | MIC (Candida albicans [2]) [µg/mL] | MIC (Candida albicans [3]) [µg/mL] | MIC (Aspergillus fumigatus [4]) [µg/mL] | MIC (Aspergillus flavus [5]) [µg/mL] | MIC (Aspergillus flavus [6]) [µg/mL] | MIC (Candida albicans [9]) [µg/mL] | IC50 [10] [µM] | MIC (Candida albicans [11]) [µg/mL] | MIC (Cryptococcus neoformans [12]) [µg/mL] | MIC (Aspergillus fumigatus [13]) [µg/mL] | MIC (Aspergillus fumigatus [14]) [µg/mL] | MIC (Aspergillus fumigatus [15]) [µg/mL] | MIC (Cryptococcus neoformans [17]) [µg/mL] | fractional inhibitory concentration index (FICI) (Cryptococcus neoformans [19]) | MIC (Candida albicans [20]) [µg/mL] | MIC (Aspergillus flavus [21]) [µg/mL] | MIC (Cryptococcus neoformans [22]) [µg/mL] | MIC (Candida albicans [25]) [µg/mL] | inhibition (Candida tropicalis [27]) [%] | also measured
1 | O=C(c1ccc([N+](=O)[O-])cc1)N1CCN(CC(=O)N2CCCC23Cc2ccccc2NC3=O)CC1 (centres undefined) | 2 (≈ 4.19 µM) | 64 | 0.5 | 2 | 128 (≈ 268 µM) | 2 | 1 | 110 | 32 (≈ 67 µM) | 64 | 1 (≈ 2.09 µM) | 64 (≈ 134 µM) | 64 | 2 (≈ 4.19 µM) | 0.5 | 2 (≈ 4.19 µM) | 32 | 64 (≈ 134 µM) | 128 (≈ 268 µM) | 80.2 | fractional inhibitory concentration index (FICI) (Candida albicans [7]): 1.125; fractional inhibitory concentration index (FICI) (Aspergillus fumigatus [8]): 0.75; fractional inhibitory concentration index (FICI) (Candida albicans [16]): 1.125; fractional inhibitory concentration index (FICI) (Aspergillus fumigatus [18]): 1; fractional inhibitory concentration index (FICI) (Aspergillus flavus [23]): 0.375; fractional inhibitory concentration index (FICI) (Cryptococcus neoformans [24]): 0.75; MIC (Cryptococcus neoformans [26]): 4 µg/mL; MIC (Aspergillus flavus [28]): 1 µg/mL; MIC (Aspergillus fumigatus [29]): 4 µg/mL; fractional inhibitory concentration index (FICI) (Aspergillus flavus [30]): 0.75; MIC (Cryptococcus neoformans [31]): 2 µg/mL
2 | O=C(c1cc([N+](=O)[O-])ccc1Cl)N1CCN(CC(=O)N2CCCC23Cc2ccccc2NC3=O)CC1 (centres undefined) | 1 (≈ 1.95 µM) | 32 | 2 | 1 | 32 (≈ 62.5 µM) | 4 | 2 | 100 | 32 (≈ 62.5 µM) | 256 | 4 (≈ 7.81 µM) | 32 (≈ 62.5 µM) | 128 | 4 (≈ 7.81 µM) | 0.5 | 1 (≈ 1.95 µM) | 64 | 128 (≈ 250 µM) | 32 (≈ 62.5 µM) | 82.9 | fractional inhibitory concentration index (FICI) (Aspergillus fumigatus [32]): 1.25; fractional inhibitory concentration index (FICI) (Candida albicans [33]): 0.75; fractional inhibitory concentration index (FICI) (Candida albicans [34]): 1; fractional inhibitory concentration index (FICI) (Cryptococcus neoformans [24]): 0.625; fractional inhibitory concentration index (FICI) (Aspergillus flavus [35]): 1.125; MIC (Cryptococcus neoformans [26]): 4 µg/mL; fractional inhibitory concentration index (FICI) (Aspergillus fumigatus [36]): 1.25; MIC (Aspergillus flavus [28]): 1 µg/mL; MIC (Aspergillus fumigatus [29]): 2 µg/mL; fractional inhibitory concentration index (FICI) (Aspergillus flavus [30]): 0.75; MIC (Cryptococcus neoformans [31]): 4 µg/mL
3 | O=C(c1cccc([N+](=O)[O-])c1)N1CCN(CC(=O)N2CCCC23Cc2ccccc2NC3=O)CC1 (centres undefined) | 4 (≈ 8.38 µM) | 128 |  |  | 32 (≈ 67 µM) |  |  | 120 | 64 (≈ 134 µM) | 256 | 8 (≈ 16.8 µM) | 64 (≈ 134 µM) | 64 | 32 (≈ 67 µM) |  | 4 (≈ 8.38 µM) | 128 | 64 (≈ 134 µM) | 64 (≈ 134 µM) | 81.2 | inhibition (Candida tropicalis [37]): Active; Ki [38]: 140 µM

From ChEMBL document CHEMBL5634100, “Novel spiro[pyrrolidine-2,3'-quinoline]-2'-one derivatives containing piperazine fragment as potential chitin synthase inhibitors and antifungal agents: Design, synthesis and biological evaluation” (Eur J Med Chem, 2023)
